Here are results for six molecules from ChEMBL document CHEMBL4732026, “Benzimidazole-1,2,3-triazole hybrid molecules: synthesis and study of their interaction with G-quadruplex DNA” (RSC Med Chem, 2021).

One may read the IC50 as the concentration that gives 50% inhibition. For orientation: ΔTm means the change in melting temperature against a reference sample. One may read the Kd as the free concentration of one partner at which half of the binding sites on the other are occupied at equilibrium, for simple one-to-one binding.

The source made the active and inactive calls. No cut-off for these calls is given here.

The test system of data set [1] is PC-3. In words: Induction of apoptosis in human PC-3 cells assessed as viable cells at 98 uM after 48 hrs by Annexin V based flow cytometric analysis (reference value: 89.57%). The class given is functional. Conditions: read-out: Activity. A general note: A flow cytometer gives signals particle by particle.
Data set [2] has as its system CHO-K1. The data set can be described thus: Induction of apoptosis in CHO-K1 cells assessed as necrotic cells at 63 uM after 48 hrs by Annexin V based flow cytometric analysis (reference value: 0.70%). Format: cell-based, Cricetulus griseus. Conditions: chinese hamster, cho-k1, 48 h.
Data set [3] has as its system CHO-K1. The data set can be described thus: Induction of apoptosis in CHO-K1 cells assessed as late apoptic cells at 60 uM after 48 hrs by Annexin V based flow cytometric analysis (reference value: 1.01%). Format: cell-based, Cricetulus griseus. To be noted: chinese hamster, cho-k1, 48 h.
For data set [4], the system named is CHO-K1. The data set can be described thus: Induction of apoptosis in CHO-K1 cells assessed as early apoptic cells at 60 uM after 48 hrs by Annexin V based flow cytometric analysis (reference value: 4.58%). To be noted: chinese hamster, cho-k1, 48 h. The class given is cell-based, Cricetulus griseus.
The nature of data set [5]: Induction of apoptosis in CHO-K1 cells assessed as viable cells at 60 uM after 48 hrs by Annexin V based flow cytometric analysis (reference value: 93.71%). The class given is cell-based, Cricetulus griseus. Conditions: chinese hamster, read-out: Activity.
Data set [6] deals with CHO-K1. In words: Induction of apoptosis in CHO-K1 cells assessed as necrotic cells at 60 uM after 48 hrs by Annexin V based flow cytometric analysis (reference value: 0.70%). The class given is cell-based, Cricetulus griseus. Conditions: chinese hamster, cho-k1, 48 h.
For data set [7], the system named is PC-3. In words: Induction of apoptosis in human PC-3 cells assessed as late apoptic cells at 91 uM after 48 hrs by Annexin V based flow cytometric analysis (reference value: 9.24%). The class given is functional.
The subject of data set [8] is PC-3. In words: Induction of apoptosis in human PC-3 cells assessed as apoptotic cells at 98 uM incubated for 48 hrs by AnnexinV based flow cytometric analysis (reference value: 10.43%). Format: functional.
Data set [9] concerns PC-3. The data set can be described thus: Cytotoxicity against human PC3 cells assessed as reduction in cell viability measured after 72 hrs by MTT assay. Format: functional, cell-based. Conditions: PC-3, 72 h. In general terms: Formazan colour is commonly taken as a measure of viable cells.
The nature of data set [10]: Induction of apoptosis in CHO-K1 cells assessed as viable cells at 63 uM after 48 hrs by Annexin V based flow cytometric analysis (reference value: 93.71%). The class given is cell-based, Cricetulus griseus. Conditions: chinese hamster, read-out: Activity.
In data set [11] the test system is CHO-K1. In words: Induction of apoptosis in CHO-K1 cells assessed as apoptic cells at 63 uM after 48 hrs by Annexin V based flow cytometric analysis (reference value: 6.29%). To be noted: chinese hamster, cho-k1, 48 h. The class given is cell-based, Cricetulus griseus.
Data set [12] relates to CHO-K1. In words: Induction of apoptosis in CHO-K1 cells assessed as apoptic cells at 60 uM after 48 hrs by Annexin V based flow cytometric analysis (reference value: 6.29%). Conditions: chinese hamster, cho-k1, 48 h. The class given is cell-based, Cricetulus griseus.
The test system of data set [13] is B16-F10. The data set can be described thus: Cytotoxicity against mouse B16-F10 cells assessed as reduction in cell viability measured after 72 hrs by MTT assay. Format: functional, cell-based. Conditions: B16-F10, 72 h.
The subject of data set [14] is PC-3. The data set can be described thus: Induction of apoptosis in human PC-3 cells assessed as necrotic cells at 91 uM after 48 hrs by Annexin V based flow cytometric analysis (reference value: 0.79%). The class given is functional.
The subject of data set [15] is CHO-K1. In words: Cytotoxicity against […] cells assessed as reduction in cell viability measured after 72 hrs by MTT assay. The class given is cell-based. Conditions: Cricetulus griseus, CHO-K1, 72 h.
The subject of data set [16] is PC-3. In words: Induction of apoptosis in human PC-3 cells assessed as viable cells at 91 uM after 48 hrs by Annexin V based flow cytometric analysis (reference value: 89.57%). Conditions: read-out: Activity. The class given is functional.
Data set [17] deals with CHO-K1. In words: Induction of reactive oxygen species generation in CHO-K1 cells after 48 hrs by DCFH-DA staining based flow cytometeric analysis. The class given is cell-based, Cricetulus griseus. To be noted: chinese hamster, cho-k1, 48 h.
In data set [18] the test system is CHO-K1. The data set can be described thus: Induction of apoptosis in CHO-K1 cells assessed as early apoptic cells at 63 uM after 48 hrs by Annexin V based flow cytometric analysis (reference value: 4.58%). The class given is cell-based, Cricetulus griseus. Conditions: chinese hamster, cho-k1, 48 h.
Data set [19] relates to PC-3. The data set can be described thus: Induction of apoptosis in human PC-3 cells assessed as necrotic cells at 98 uM after 48 hrs by Annexin V based flow cytometric analysis (reference value: 0.79%). Format: functional.
Data set [20] deals with PC-3. The data set can be described thus: Induction of apoptosis in human PC-3 cells assessed as early apoptic cells at 91 uM after 48 hrs by Annexin V based flow cytometric analysis (reference value: 0.40%). The class given is functional.
Data set [21] concerns PC-3. In words: Induction of apoptosis in human PC-3 cells assessed as early apoptic cells at 98 uM after 48 hrs by Annexin V based flow cytometric analysis (reference value: 0.40%). Format: functional.
In data set [22] the test system is PC-3. In words: Induction of apoptosis in human PC-3 cells assessed as late apoptic cells at 98 uM after 48 hrs by Annexin V based flow cytometric analysis (reference value: 9.24%). Format: functional.
Data set [23] concerns PC-3. In words: Induction of apoptosis in human PC-3 cells assessed as apoptotic cells at 91 uM incubated for 48 hrs by AnnexinV based flow cytometric analysis (reference value: 10.43%). Format: functional.
In data set [24] the test system is CHO-K1. The data set can be described thus: Induction of apoptosis in CHO-K1 cells assessed as late apoptic cells at 63 uM after 48 hrs by Annexin V based flow cytometric analysis (reference value: 1.01%). To be noted: chinese hamster, cho-k1, 48 h. The class given is cell-based, Cricetulus griseus.
For data set [25], the system named is dsDNA. The data set can be described thus: Stabilization of double strand DNA (unknown origin) assessed as change in melting temperature at 10.3 uM incubated for 5 mins by UV-visible thermal denaturation study. Format: nucleic-acid assay.
For data set [26], the target named is Quadruplex DNA. In words: Binding affinity to Tel Q G-quadruplex DNA (unknown origin) assessed as dissociation constant incubated for 5 mins by UV- vis spectrophotometric analysis. Format: nucleic-acid assay.
For data set [27], the system named is Quadruplex DNA. The data set can be described thus: Stabilization of c-Myc G-quadruplex DNA (unknown origin) assessed as change in melting temperature at 10.3 uM incubated for 5 mins by UV-visible thermal denaturation study. Format: nucleic-acid assay.
Data set [28] relates to dsDNA. In words: Binding affinity to double strand DNA (unknown origin) assessed as hypsochromic shift at 10.3 uM incubated for 5 mins by UV- vis spectrophotometric analysis. The class given is nucleic-acid assay.
Data set [29] deals with dsDNA. In words: Binding affinity to double strand DNA (unknown origin) assessed as dissociation constant incubated for 5 mins by UV- vis spectrophotometric analysis. Format: nucleic-acid assay.
For data set [30], the system named is Quadruplex DNA. The data set can be described thus: Binding affinity to c-Myc G-quadruplex DNA (unknown origin) assessed as hypsochromic shift at 10.3 uM incubated for 5 mins by UV- vis spectrophotometric analysis. The class given is nucleic-acid assay.
Data set [31] concerns Quadruplex DNA. The data set can be described thus: Binding affinity to c-Myc G-quadruplex DNA (unknown origin) assessed as increase in fluorescence intensity at 10.3 uM incubated for 5 mins by spectrofluorometric analysis. Format: nucleic-acid assay.
Data set [32] concerns Quadruplex DNA. In words: Stabilization of Tel Q G-quadruplex DNA (unknown origin) assessed as change in melting temperature at 10.3 uM incubated for 5 mins by UV-visible thermal denaturation study. Format: nucleic-acid assay.
For data set [33], the target named is Quadruplex DNA. The data set can be described thus: Binding affinity to c-Myc G-quadruplex DNA (unknown origin) assessed as dissociation constant incubated for 5 mins by UV- vis spectrophotometric analysis. The class given is nucleic-acid assay.
Data set [34] has as its system dsDNA. In words: Binding affinity to double strand DNA (unknown origin) assessed as increase in fluorescence intensity at 8.5 uM incubated for 5 mins by spectrofluorometric analysis. Format: nucleic-acid assay.
The subject of data set [35] is Quadruplex DNA. The data set can be described thus: Binding affinity to c-Myc G-quadruplex DNA (unknown origin) assessed as increase in fluorescence intensity at 8.5 uM incubated for 5 mins by spectrofluorometric analysis. The class given is nucleic-acid assay.
Data set [36] concerns dsDNA. In words: Binding affinity to double strand DNA (unknown origin) assessed as hyperchromicity at 10.3 uM incubated for 5 mins by UV- vis spectrophotometric analysis. The class given is nucleic-acid assay.
The test system of data set [37] is Quadruplex DNA. In words: Binding affinity to Tel Q G-quadruplex DNA (unknown origin) assessed as hypsochromic shift at 10.3 uM incubated for 5 mins by UV- vis spectrophotometric analysis. The class given is nucleic-acid assay.
Data set [38] deals with Quadruplex DNA. In words: Binding affinity to Tel Q G-quadruplex DNA (unknown origin) assessed as increase in fluorescence intensity at 8.5 uM incubated for 5 mins by spectrofluorometric analysis. Format: nucleic-acid assay.
Data set [39] deals with Quadruplex DNA. The data set can be described thus: Binding affinity to c-Myc G-quadruplex DNA (unknown origin) assessed as hyperchromicity at 10.3 uM incubated for 5 mins by UV- vis spectrophotometric analysis. Format: nucleic-acid assay.
In data set [40] the test system is dsDNA. The data set can be described thus: Binding affinity to double strand DNA (unknown origin) assessed as increase in fluorescence intensity at 10.3 uM incubated for 5 mins by spectrofluorometric analysis. The class given is nucleic-acid assay.
In data set [41] the test system is Quadruplex DNA. In words: Binding affinity to Tel Q G-quadruplex DNA (unknown origin) assessed as increase in fluorescence intensity at 10.3 uM incubated for 5 mins by spectrofluorometric analysis. Format: nucleic-acid assay.
The test system of data set [42] is Quadruplex DNA. In words: Binding affinity to Tel Q G-quadruplex DNA (unknown origin) assessed as hyperchromicity at 10.3 uM incubated for 5 mins by UV- vis spectrophotometric analysis. The class given is nucleic-acid assay.

Consider `C[n+]1ccc(-c2c3nc(c(-c4cc[n+](C)cc4)c4ccc([nH]4)c(-c4cc[n+](C)cc4)c4ccc([nH]4)c(-c4cc[n+](C)cc4)c4nc2C=C4)C=C3)cc1` [TMPYP4], for which the viability at 98 µM in data set [1] came to 51.3%. Moreover, the Activity in [2] came to 1.31%; in data set [3] it was 3.39%; in [4], 13.72%; in data set [6] it was 0.95%; in data set [7], 18.01%; in [8] it was 48.7%. Further, the Activity in data set [11] is given as 24.84%; in data set [12] it was 18.06%; in [14], 2.38%; in [17], “Non-Toxic”; in data set [18], 18.87%; in data set [19], 14.36%. For the same molecule, the Activity is reported as 4.41% in data set [20]; 0.9% in data set [21]; 33.44% in data set [22]; 24.8% in [23]; 4.66% in data set [24]. Moreover, the viability at 48 h, 60 µM in data set [5] came out at 81.9%. Further, the IC50 in data set [9] is 94.8 µM; in data set [13], 77 µM; in data set [15] it was 61.4 µM. For the same molecule, in data set [10], the viability at 48 h, 63 µM came out at 75.2%. For the same molecule, in data set [16], the viability at 91 µM is 75.2%.
Regarding `Cc1c(NC(=O)Cn2cc(CSc3nc4cc(OC(F)F)ccc4[nH]3)nn2)cccc1[N+](=O)[O-]`, the IC50 in data set [9] worked out at 66.2 µM; in data set [13] it was 103 µM; in [15], 62.2 µM.
For `FC(F)Oc1ccc2[nH]c(SCc3cn(-c4cccc(Cl)c4Cl)nn3)nc2c1`, the IC50 in data set [9] amounted to 69.8 µM; in data set [13] it was 90.5 µM; in data set [15] it was 85 µM.
For `Fc1ccc(-n2cc(CSc3nc4cc(OC(F)F)ccc4[nH]3)nn2)cc1F` the same measures were 65.2 µM, 56.8 µM and 56.1 µM.
The like results for `O=C(Cn1cc(CSc2nc3cc(OC(F)F)ccc3[nH]2)nn1)Nc1cccc(Cl)c1` were, in that order, 136 µM, 135 µM and 115 µM.
`O=[N+]([O-])c1ccc(-n2cc(CSc3nc4cc(OC(F)F)ccc4[nH]3)nn2)cc1`: the values for the ΔTm in data set [25], in data set [27] and in data set [32] were 0 °C, -5 °C and 9 °C, respectively. The Kd in data set [26] was found to be 87.3 µM; in [29] it was 191 µM; in data set [33] it was 79.2 µM. Moreover, the Activity in data set [28] was 1.6 nm; in data set [30] it was 0.6 nm; in data set [36], 15.9%; in [37], 2.9 nm; in data set [39] it was 11.7%; in data set [42], 31.4%. Further, the IC50 in data set [9] amounted to 59.2 µM; in data set [13], 203 µM; in data set [15] it was 100 µM. Besides, the outcome in data set [31], in data set [34], in data set [35], in data set [38], in data set [40] and in data set [41] was Active.
